System: pentose cycle, glucose activation and fatty acid synthesis pathways
Test: stable isotope ([1,2-13C2]glucose) based dynamic metabolic profiling
Format: cell-based
Settings: for cell proliferation rates / nucleic acid ribose synthesis through the non-oxidative steps of the pentose cycle: metabolic profile induced by cell transforming agents
Excerpt: The present invention comprises, for example, the use of the stable [1,2-^13C2]glucose tracer for metabolic pathway analyses in cultures of mammalian cells, bacteria, virus hosting cells, phage hosting bacteria, tissue slices, perfused organs, living animals or humans. The invention provides a dynamic and comprehensive metabolic profiling technique by using specifically labeled glucose substrate isotopes which not only turn into intermediary metabolites but also produce mass isotopomers of these metabolites which can be separated, measured and quantitated using liquid and gas chromatography separation and mass spectrometry (GC/MS), other mass spectrometric analysis or nuclear magnetic resonance (NMR) instruments.
After treatments, while incubating with the isotope labeled glucose substrate, the profiling study may begin with the separation of cell pellets, cell culture media, blood plasma/serum or body fluids. The cell culture media may then be used for lactate and glutamate analyses. Lactate is an abundant cell media component of the 3 carbon metabolite pool of the cell. It is used to determine the relative activity of pentose cycle glucose oxidation and recycling into glycolysis, as the percent of substrate flux through glycolysis, also known as the Embden-Meyerhoff-Parnas pathway. Glutamate label accumulation represents tricarboxylic acid (TCA) cycle carbon substrate flow. Nucleic acid ribose and deoxyribose are used to determine cell viability (ribose) and cell proliferation (deoxyribose).
Cell cycle progression and the frequency of cell divisions are determined by the accumulation of ^13C label into deoxyribose, while cell viability, apoptosis and necrosis are determined by the differential incorporation of ^13C into ribose and deoxyribose. The major advantage of our label system introduced herein is that we can differentiate between glucose oxidation and nonoxidative ribose/deoxyribose synthesis during nucleic acid production in disease and health as well as during drug testing. Glycogen glucose represents glycogen synthesis, which can originate from activated glucose (direct glycogen synthesis) or indirectly from pentoses after glucose oxidation in the pentose cycle. Non-essential fatty acids of the saturated and desaturated kinds indicate the rate of de novo fatty acid synthesis from glucose and the contribution of fatty acid synthase, chain elongase and desaturase to cell differentiation, hormone synthesis and drug effects.
The details of how the invention can be carried out can be better understood by reference to the figures. […] Glucose activation via hexokinase/glucokinase and the formation of fructose-1,6-bis phosphate maintain the ^13C labeled carbons in the 1st and 2nd positions. ^13C-labeled carbon positions derived from [1,2-^13C2]glucose are shown by the “13” superscript, while ^12C native-labeled carbon positions are shown by the “12” superscript. Participating enzymes are italicized in all of the figures. Thus, a single version of the invention can be carried out by creating two separate cell culture systems. The first system is a control system which includes the ^13C labeled glucose which may be [1,2-^13C2] glucose. […]

Compound	glucose activation and oxidative and non-oxidative ribose synthesis from glucose (metabolic profile of anticancer compounds, associated with effective tumor growth control)	cell proliferation rates	nucleic acid ribose synthesis through the non-oxidative steps of the pentose cycle
Cc1ccc(NC(=O)c2ccc(CN3CCN(C)CC3)cc2)cc1Nc1nccc(-c2cccnc2)n1 [Gleevec]	inhibited		
CCOP(=S)(NC(C)C)Oc1ccccc1C(=O)OC(C)C (centres unmarked) [isofenphos]		increased	intense
transforming growth factor beta [TGF-beta]		increased	intense

— patent US20050281745A1, “Stable isotope based dynamic metabolic profiling of living organisms for characterization of metabolic diseases, drug testing and drug development” (priority 2002, published 2005)
